Converted amounts (≈) assume the structure as drawn. Read-outs that look alike come from different tables or passages of the source.
Legend:
Candida glabrata strains = experiment: Example N: MIC and MFC (CLSI) against Candida glabrata; assay type: cell-based; details: Nakaseomyces glabratus; for MIC: read-out: MIC 100%; for MFC: range over Candida glabrata strains, in 48 hr
Method: (§1) The objective of this study was to determine the antifungal activity of eight experimental compounds against a representative panel of fungal isolates, including Candida albicans, C. glabrata, Cryptococcus neoformans, Trichophyton rubrum, Aspergillus fumigatus, and Rhizopus spp. Antifungal activity was measured by minimum inhibitory concentration (MIC) and minimum fungicidal concentration (MFC).
(§2) Three recent clinical strains of each species, taken from the culture collection at the Center for Medical Mycology, Case Western University, were tested.
(§3) Compounds in powder form were dissolved in DMSO. Serial dilutions of each compound were then prepared in RPMI-1640 in a range of […].
(§4) MIC testing was performed according to the CLSI M27-A3 and M38-A2 standards for the susceptibility testing of yeasts and filamentous fungi, respectively (1, 2). Test isolates were subcultured from frozen slants onto potato dextrose agar plates (Trichophyton rubrum was subcultured onto oatmeal plates for conidia production) and checked for purity. Inocula were then prepared in RPMI-1640 (YNB for Cryptococcus) to a concentration of 0.5-2.5×10^3 colony-forming units (CFU)/ml or 0.4-5×10^4 conidia/ml for yeast and filamentous fungi, respectively.
(§5) MFC determinations were performed according to the modifications previously described by Canton et al. and Ghannoum and Isham. (3, 4) Specifically, the total contents of each clear well from the MIC assay were subcultured onto potato dextrose agar. To avoid antifungal carryover, the aliquots were allowed to soak into the agar and then were streaked for isolation once dry, thus removing the cells from the drug source.

Rhizopus strains = experiment: Example N: MIC and MFC (CLSI) against Rhizopus; assay type: cell-based, Rhizopus spp.; details: for MIC50 / MIC: Rhizopus; for MIC: read-out: MIC 100%
Method: as §1, §2, §3, §4, §5

[1] = tested on: Cryptococcus neoformans (serotype A); experiment: Example L: Cryptococcus neoformans (serotype A) growth inhibition; assay type: cell-based; details: Cryptococcus neoformans; for MIC: read-out: MIC, uM (concentration for maximum - 99% of inhibition)
Method: Cryptococcus neoformans (serotype A) were plated in 96 well plates with 144 μl/well of 5×10e5 CFU/ml in YPD growth medium. Diluted compounds were then added to each well with concentration ranged from 0.05 to 10 μM as final concentration in duplicates. The plates were inoculated at 30° C. Two readings of OD at 600 nm were measured after 18 hr and […] treatments.
C12-imidazol had relative weak activity against Cryptococcus serotype A at low concentration. Data plotted was based on 26 hour reading because 18 hour reading was too low.
• 1. Pick a single colony of Cryptococcus from the Sabouraud Dextrose agar plate using the inoculum loop and inoculate into a 125 ml flask containing 25 ml of YPD growth medium • 2. Incubate at 30° C. with shaking at 220 rpm for 24 hours with loosen lid to allow air in and facilitates growth. • 3. Examine an aliquot of the culture under a microscope for yeast cell morphology and lack of bacterial contamination. • 4. Dilute the overnight culture with YPD medium at 1:100 dilution and count the number of cells as 8×10^6 cfu/ml. • 5. Make a final concentration of cells suspension at 5×10^5 cfu/ml in YPD medium after the stock culture had been stored at 4° C. for 3 days. • 6. Plate 144 μl/well of 5×10^5 cfu/ml cell suspension on 96-well plates. Part-II: Cryptococcus Growth Inhibition Testing with Compounds • 1. From 10 mM DMSO stock solutions, make serial dilutions of compounds to 0.0013, 0.0025, 0.0125, 0.025, 0.05, 0.125 and 0.25 mM solution • 2. Add 6 ul each of diluted compound solutions per well in duplicates. The final concentrations were 0, 0.05, 0.1, 0.5, 1.0, 2.0, 5.0 and 10 micromolar. • 3. Incubated all plates at 30° C. overnight with 175 rpm shaking. • 4. Read absorbance at OD600 after 18 and 26 hours for each plate. • 5. Calculated the % inhibition and IC50 of each compound against the untreated cell.

[2] = tested on: Trichophyton rubrum strains; experiment: Example N: MIC and MFC (CLSI) against Trichophyton rubrum; assay type: cell-based; details: for MIC: read-out: MIC 100%, Range, incubated for 96 hrs, three clinical strains; for MFC: three clinical strains
Method: as §1, §2, §3, §4, §5

[3] = tested on: imiquimod-induced dermatitis
Method: Topical imiquimod (IMQ), a toll-like receptor agonist, has been established as a model of Inflammatory skin diseases including psoriasis and atopic dermatitis. Dermal inflammatory changes and gene expression in mice treated with topical imiquimod mimic human psoriasis and dermatitis (van der Fits et al., 2009; Swindell et al., 2011). The effect of a set of compounds of the invention were tested in a mouse model of imiquimod-induced dermatitis, with topical tacrolimus and dexamethasone as comparators for assessing safety and efficacy relative to standard agents used to treat dermatitis in humans.
Commercial 0.1% tacrolimus ointment (ProTopic™[…]) was also used as an active comparator. Petrolatum containing 10% ethanol was used as a control treatment.
Female Balb/C mice (8 weeks old) were randomized and divided into groups of 5 animals each. Polyethylene collars were affixed to the mice to prevent them from easily scratching their ears. 5% imiquimod was applied to both ears of each mouse (20 microliters per ear) daily for 5 days, and then every other day for the full duration of the study. […] On day 7 after initiation of imiquimod, treatment with topical agents was started. Both ears of each mouse were treated with test ointments, with one compound per mouse.
Ear thickness and PASI assessments (Psoriasis Area and Severity Index, a standard psoriasis scoring system) were recorded twice per week throughout the study. The PASI score comprises the sum of evaluations of swelling, erythema and scaling on scales from 0 to 4; the maximum PASI score is 12, and the minimum, in unaffected skin, is 0).

THP-1 cells = experiment: Example C: compound screen, viable THP-1 cell count after 5 hours +/- LPS; assay type: cell-based, Human
Text: Background: THP-1 is a human acute myeloid leukemia (AML) cell line that can be induced into a macrophage-like cell with vitamin-D3 (vit-D3). In the macrophage, LPS (lipopolysaccharide; endotoxin) stimulation of toll-like receptor 4 (TLR-4) leads to NF-κB activation and secretion of inflammatory cytokines but also the priming of programmed death pathways through RIP and Caspase 8. The balance of this complex regulatory network is dependent on highly specific kinases, enzymes that require ATP. Disruption of either cytosolic pH or ATP availability/energy level uncouples this control network and the can macrophage shift away from production of inflammatory cytokines towards a programmed death event, which has the net effect of limiting inflammatory damage.

[4] = read-out: IC50, uM (concentration for 50% of inhibition), OD of 26 hour reading, 30° C., XLfit
[5] = OD of 26 hour reading, 30° C., XLfit

MIC50 (Candida glabrata strains; 24 h) [µg/mL] | MIC (Candida glabrata strains; 24 h) [µg/mL] | MIC50 (Candida glabrata strains; 48 h) [µg/mL] | MIC (Candida glabrata strains; 48 h) [µg/mL] | MIC50 (Rhizopus strains; 24 h) [µg/mL] | MIC (Rhizopus strains; 24 h) [µg/mL] | MIC50 (Rhizopus strains; 48 h) [µg/mL] | MIC (Rhizopus strains; 48 h) [µg/mL] | IC50 [1, 4] [µM] | MIC [1, 5] [µM] | MIC [2] [µg/mL] | SMILES | MFC (Candida glabrata strains) [µg/mL] | MFC [2] [µg/mL] | also measured
4 (≈ 10.2 µM) | 8 (≈ 20.5 µM) | 8 (≈ 20.5 µM) | 8 to 16 (≈ 20.5 to 40.9 µM) | 4 (≈ 10.2 µM) | 4 to 8 (≈ 10.2 to 20.5 µM) | 4 to 8 (≈ 10.2 to 20.5 µM) | 8 (≈ 20.5 µM) | 1.74 | 13.8 (≈ 5.38 µg/mL) | 1 to 16 (≈ 2.56 to 40.9 µM) | CCCCCCOCCCCCCCCNc1ccnc2cc(Cl)ccc12 [AW, 7-Chloro-N-[8-(hexyloxy)octyl]quinolin-4-amine] | 16 to 32 (≈ 40.9 to 81.8 µM) | 8 to 16 (≈ 20.5 to 40.9 µM) | –
– | – | – | – | – | – | – | – | 0.69 | 17.5 (≈ 5.73 µg/mL) | – | c1ccc(Oc2cccc(CNc3ncnc4ccccc34)c2)cc1 [BM, N-(3-Phenoxybenzyl)quinazolin-4-amine] | – | – | Ear thickness, Mean ± SEM ([3]; imiquimod-treated mice, topical ointment 0.06% active drug (dexamethasone 0.03%, tacrolimus 0.1%)): 0.577 ± 0.019; Body Weight (mean ± SEM), Final ([3]; mouse, in vivo): 20.9 ± 0.6 g; Body Weight (mean ± SEM), Initial ([3]; mouse, in vivo): 20.8 ± 0.7 g; D BW (g) ([3]; mouse, in vivo): +0.1 g; PASI Score, Mean ± SEM ([3]; scale 0-12, topical ointment 0.06% active drug (dexamethasone 0.03%, tacrolimus 0.1%)): 9.250 ± 0.183; IC50 ([1]; Macrophage, direct inhibition, values of the earlier study (Table 25), read-out: IC50 value (μM) for inhibition of fungal growth, No macrophages): 0.69 µM; Reduction in viable THP-1 cell count (percent change) from 0 hours, Mean ± SE (THP-1 cells; Compound (0.1 μM), No LPS): −3.96 ± 0.82%; Reduction in viable THP-1 cell count (percent change) from 0 hours, Mean ± SE (THP-1 cells; Compound (0.1 μM), Plus LPS): −25.80 ± 3.26%; Reduction in viable THP-1 cell count (percent change) from 0 hours, Mean ± SE (THP-1 cells; Compound (1.0 μM), No LPS): −4.18 ± 2.46%; Reduction in viable THP-1 cell count (percent change) from 0 hours, Mean ± SE (THP-1 cells; Compound (1.0 μM), Plus LPS): −39.17 ± 2.18%; ability to inactivate pro-inflammatory THP-1 cells, in words (relative to benchmark AC) (THP-1 cells; LPS-treated THP-1 cells): higher activity than the active benchmark compound AC
2 (≈ 5.2 µM) | 2 (≈ 5.2 µM) | 2 to 4 (≈ 5.2 to 10.4 µM) | 4 (≈ 10.4 µM) | 4 (≈ 10.4 µM) | 4 (≈ 10.4 µM) | 4 to 8 (≈ 10.4 to 20.8 µM) | 8 (≈ 20.8 µM) | 3.01 | 10.5 (≈ 4.03 µg/mL) | 1 to 4 (≈ 2.6 to 10.4 µM) | CCCCCCOCCCCCCCCCCNc1ccnc2ccccc12 [Compound AL, N-[10-(Hexyloxy)decyl]quinolin-4-amine] | 4 (≈ 10.4 µM) | 2 to 4 (≈ 5.2 to 10.4 µM) | –
2 (≈ 5.12 µM) | 8 (≈ 20.5 µM) | 8 (≈ 20.5 µM) | 8 (≈ 20.5 µM) | 0.5 to 1 (≈ 1.28 to 2.56 µM) | 1 to 2 (≈ 2.56 to 5.12 µM) | 1 (≈ 2.56 µM) | 1 to 2 (≈ 2.56 to 5.12 µM) | 0.91 | 17.3 (≈ 6.76 µg/mL) | 0.25 to 8 (≈ 0.639 to 20.5 µM) | CCCCCCOCCCCCCCCNc1ccnc2c(Cl)cccc12 [Compound AX, 8-Chloro-N-[8-(hexyloxy)octyl]quinolin-4-amine] | 8 to 64 (≈ 20.5 to 164 µM) | 2 to 8 (≈ 5.12 to 20.5 µM) | MFC (Rhizopus strains; range over Rhizopus strains, in 48 hr): > 64 µg/mL
